According to patent US11667645B2, “Granzyme B directed imaging and therapy” (CytoSite Biopharma Inc., priority 2018, dated 2023):

Target: Granzyme B (human lymphocytes) (Homo sapiens (Human), UniProt P10144)
Assay: human Granzyme B biochemical assay
Settings: Granzyme B (human lymphocytes) 5 nM, substrate Ac-IETD-AFC 200 μM, Cpd incubation with enzyme 30 mins, 22° C., read time 60 mins; read-out: IC50
From the text: The compounds of Formula I-VIII described above can be tested using the human Granzyme B biochemical assay provided below.
Materials: • 1. Granzyme B (human lymphocytes) Enzyme: Enzo Lifesciences, Cat #ALX-200-602-0010 • 2. Substrate (Ac-IETD-AFC): Enzo Lifesciences, Cat #ALX-260-110-M010 • 3. Standard inhibitor (Compound 20-Isomer3): Synthesized internally in TCG • 4. Dimethyl sulfoxide (DMSO): Sigma-Aldrich, Cat #41639 • 5. HEPES: Gibco, Cat #15630-080 • 6. Calcium chloride: Sigma-Aldrich, Cat #C-5080 • 7. Distilled water: Gibco, Cat #15230-162 • 8. Bovine serum albumin (BSA): Sigma-Aldrich, Cat #A3059 • 9. Black, clear bottom PDL plate (384 wells): Greiner bio-one, Cat #781946 • 10. Polypropylene plate (384 wells): Corning, Cat #3657 Assay Buffer Composition:
Compound Preparation: • 1. DMSO is added to the respective compound vial to make 10 mM Compound stock solution, which is stored at −20° C. • 2. 10 mM Compound stock solution is thawed and 1 mM DMSO stock solution is prepared by adding 45 μl of DMSO to 5 μl of 10 mM compound stock solution. • 3. 1 mM DMSO stock solution is serially diluted (3.16 fold) by adding 10 μl of 1 mM DMSO stock to 21.6 μl of DMSO and mixed well. 10 μl of the resulting solution is then added to 21.6 μl of DMSO and mixed well. This process is continued to create 11 dilution points for the assay standard inhibitor and 8 dilution points for test compounds in 384 well polypropylene plate. • 4. 2 μl of each dilution are dispensed in assay ready plate. • 5. Each well is then diluted 25 fold by adding 48 μl of assay buffer to 2 μl of compound in assay ready plate to make Compound working stock. Enzyme Preparation: • 1. Supplied Granzyme B (human lymphocytes) enzyme is reconstituted to 1 mg/ml (about 31.25 μM) and 1 μl aliquots are kept in −80° C. • 2. 1 μl aliquot is diluted to 625 nM by adding 49 μl of assay buffer containing 0.1% BSA and gently mixed. • 3. 10 nM enzyme working stock is prepared by adding assay buffer containing 0.1% BSA. Substrate Preparation: • 1. Supplied substrate (Ac-IETD-AFC) is reconstituted by adding DMSO to make 10 mM stock, aliquoted and stored in −80° C. • 2. 4 mM substrate mid stock is prepared by adding DMSO. • 3. Substrate working stock i.e. 800 μM is prepared by adding assay buffer. Assay Protocol: • 1. 10 μl of serially diluted Compound working stock (start dose 40 μM) is added from assay ready plate to assay plate according to the plate map. • 2. Positive control (40 μM of standard inhibitor) and negative control (4% DMSO buffer) are added to the respective wells. • 3. 20 μl of Enzyme working stock is added to assay plate and gently mixed. • 4. The plate is incubated at 22° C. for 30 mins and spun at 130 g for 1 minute. • 5. After incubation, 10 μl of Substrate working stock is added to respective wells and mixed (Assay plate is maintained in dark after substrate addition). • 6. The plate is incubated at 22° C. for 60 mins and spun at 130 g for 1 minute. • 7. Fluorescence read (RFU) (Ex: 400 nm/Em: 505 nm) is taken after 60 mins in EnVision Multimode plate reader. Final Assay Concentration:
Data Analysis: • 1. The RFU read is analyzed to calculate percent inhibition by normalizing with positive and negative controls taken as 100% and 0% effect respectively in Microsoft excel. • 2. Graph is generated by putting the analyzed data in GraphPad prism 5.0 software to get IC50 value for each compound.

Sequence of Granzyme B (human lymphocytes) (P10144 21-247): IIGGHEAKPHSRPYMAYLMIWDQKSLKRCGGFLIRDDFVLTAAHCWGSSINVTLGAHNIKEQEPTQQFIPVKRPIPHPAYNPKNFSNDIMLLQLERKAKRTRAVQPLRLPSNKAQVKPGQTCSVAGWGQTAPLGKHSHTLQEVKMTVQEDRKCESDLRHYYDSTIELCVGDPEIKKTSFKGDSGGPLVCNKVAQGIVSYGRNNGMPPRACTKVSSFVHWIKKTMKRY

Compound	IC50
CC[C@H](C)[C@H](NC(=O)COCCF)C(=O)N[C@H]1CCc2cccc3c2N(C1=O)[C@H](C(=O)NCc1nn[nH]n1)C3 [Compound C119, (2S,5S)-5-{(2S,3S)-2-[2-(2-Fluoro-ethoxy)-acetylamino]-3-methyl-pentanoylamino}-4-oxo-1,2,4,5,6,7-hexahydro-azepino[3,2,1-hi]indole-2-carboxylic acid (2H-tetrazol-5-ylmethyl)-amide]	1 to 300 nM
CC[C@H](C)[C@H](NC(=O)COCCF)C(=O)N[C@H]1CCc2cccc3c2N(C1=O)[C@H](C(=O)NCc1ccc(Cl)cc1)C3 [Compound C132, (2S,5S)-5-{(2S,3S)-2-[2-(2-Fluoro-ethoxy)-acetylamino]-3-methyl-pentanoylamino}-4-oxo-1,2,4,5,6,7-hexahydro-azepino[3,2,1-hi]indole-2-carboxylic acid 4-chloro-benzylamide]	> 5000 nM
CC[C@H](C)[C@H](NC(=O)COCCF)C(=O)N[C@H]1CCc2cccc3c2N(C1=O)[C@H](C(=O)NCc1ccccn1)C3 [Compound C121, (2S,5S)-5-{(2S,3S)-2-[2-(2-Fluoro-ethoxy)-acetylamino]-3-methyl-pentanoylamino}-4-oxo-1,2,4,5,6,7-hexahydro-azepino[3,2,1-hi]indole-2-carboxylic acid (pyridin-2-ylmethyl)-amide]	> 5000 nM
COc1ccccc1C(=O)N[C@H](C(=O)N[C@H]1CCc2cccc3c2N(C1=O)[C@H](C(=O)NCc1c[nH]nn1)C3)C(C)C [Compound C063, (2S,5S)-5-[(S)-2-(2-Methoxy-benzoylamino)-3-methyl-butyrylamino]-4-oxo-1,2,4,5,6,7-hexahydro-azepino[3,2,1-hi]indole-2-carboxylic acid (1H-[1,2,3]triazol-4-ylmethyl)-amide]	1 to 300 nM
O=C(N[C@H](C(=O)N[C@H]1CCc2cccc3c2N(C1=O)[C@H](C(=O)NCc1c[nH]nn1)C3)C1CCCC1)c1ccccc1 [Compound C076, (2S,5S)-5-((S)-2-Benzoylamino-2-cyclopentyl-acetylamino)-4-oxo-1,2,4,5,6,7-hexahydro-azepino[3,2,1-hi]indole-2-carboxylic acid (1H-[1,2,3]triazol-4-ylmethyl)-amide]	1 to 300 nM
CC[C@H](C)[C@H](NC(=O)c1ccccc1OC)C(=O)N[C@H]1CCc2cccc3c2N(C1=O)[C@H](C(=O)NCc1c[nH]nn1)C3 [Compound C060, (2S,5S)-5-[(2S,3S)-2-(2-Methoxy-benzoylamino)-3-methyl-pentanoylamino]-4-oxo-1,2,4,5,6,7-hexahydro-azepino[3,2,1-hi]indole-2-carboxylic acid(1H-[1,2,3]triazol-4-ylmethyl)-amide]	1 to 300 nM
CC[C@H](C)[C@H](NC(=O)CC1Cc2ccccc2O1)C(=O)N[C@H]1CCc2cccc3c2N(C1=O)[C@H](C(=O)NCc1c[nH]nn1)C3 (stereo partly drawn) [Compound C173, (2S,5S)-5-[(2S,3S)-2-(2-2,3-Dihydro-benzofuran-2-yl-acetylamino)-3-methyl-pentanoylamino]-4-oxo-1,2,4,5,6,7-hexahydro-azepino[3,2,1-hi]indole-2-carboxylic acid (1H-[1,2,3]triazol-4-ylmethyl)-amide]	1 to 300 nM
Cc1ccc(C(=O)N[C@H](C(=O)N[C@H]2CCc3cccc4c3N(C2=O)[C@H](C(=O)NCc2c[nH]nn2)C4)C(C)C)cc1 [Compound C052, (2S,5S)-5-[(S)-3-Methyl-2-(4-methyl-benzoylamino)-butyrylamino]-4-oxo-1,2,4,5,6,7-hexahydro-azepino[3,2,1-hi]indole-2-carboxylic acid (1H-[1,2,3]triazol-4-ylmethyl)-amide]	1 to 300 nM
CC(C)C[C@H](NC(=O)Cc1ccccc1)C(=O)N[C@H]1CCc2cccc3c2N(C1=O)[C@H](C(=O)NCc1c[nH]nn1)C3 [Compound C016, (2S,5S)-5-((S)-4-Methyl-2-phenylacetylamino-pentanoylamino)-4-oxo-1,2,4,5,6,7-hexahydro-azepino[3,2,1-hi]indole-2-carboxylic acid (1H-[1,2,3]triazol-4-ylmethyl)-amide]	1000 to 5000 nM
O=C(Cc1csc2ccccc12)N[C@@H](Cc1ccc(F)cc1)C(=O)N[C@H]1CCc2cccc3c2N(C1=O)[C@H](C(=O)NCc1c[nH]nn1)C3 [Compound C011, (2S,5S)-5-[(S)-2-(2-Benzo[b]thiophen-3-yl-acetylamino)-3-(4fluoro-phenyl)-propionylamino]-4-oxo-1,2,4,5,6,7-hexahydro-azepino[,3,2,1-hi]indole-2-carboxylic acid (1H-[1,2,3]triazol-4-ylmethyl)-amide]	> 5000 nM
CC(C)[C@H](NC(=O)Cc1ccccc1)C(=O)N[C@H]1CCc2cccc3c2N(C1=O)[C@H](C(=O)NCc1c[nH]nn1)C3 [Compound C014, (2S,5S)-5-((S)-3-Methyl-2-phenylacetylamino-butyrylamino)-4-oxo-1,2,4,5,6,7-hexahydro-azepino[3,2,1-hi]indole-2-carboxylic acid (1H-[1,2,3]triazol-4-ylmethyl)-amide]	1 to 300 nM
CC[C@H](C)[C@H](NC(=O)COCCF)C(=O)N[C@H]1CCc2cccc3c2N(C1=O)[C@H](C(=O)NCc1ccc[nH]1)C3 [Compound C104, (2S,5S)-5-{(2S,3S)-2-[2-(2-Fluoro-ethoxy)-acetylamino]-3-methyl-pentanoylamino}-4-oxo-1,2,4,5,6,7-hexahydro-azepino[3,2,1-hi]indole-2-carboxylic acid (1H-pyrrol-2-ylmethyl)-amide]	> 5000 nM
CC[C@H](NC(=O)c1ccccc1)C(=O)N[C@H]1CCc2cccc3c2N(C1=O)[C@H](C(=O)NCc1c[nH]nn1)C3 [Compound C045, (2S,5S)-5-((S)-2-Benzoylamino-butyrylamino)-4-oxo-1,2,4,5,6,7-hexahydro-azepino[3,2,1-hi]indole-2-carboxylic acid (1H-[1,2,3]triazol-4ylmethyl)-amide]	1000 to 5000 nM
CC(=O)N[C@@H](CO)C(=O)N[C@H]1CCc2cccc3c2N(C1=O)[C@H](C(=O)NCc1c[nH]nn1)C3 [Compound C029, (2S,5S)-5-((S)-2-Acetylamino-3-hydroxy-propionylamino)-4-oxo-1,2,4,5,6,7-hexahydro-azepino[3,2,1-hi]indole-2-carboxylic acid (1H-[1,2,3]triazol-4-ylmethyl)-amide]	> 5000 nM
O=C(N[C@H](C(=O)N[C@H]1CCc2cccc3c2N(C1=O)[C@H](C(=O)NCc1c[nH]nn1)C3)C1CC1)c1ccccc1 [Compound C082, (2S,5S)-5-((S)-2-Benzoylamino-2-cyclopropyl-acetylamino)-4-oxo-1,2,4,5,6,7-hexahydro-azepino[3,2,1-hi]indole-2-carboxylic acid (1H-[1,2,3]triazol-4-ylmethyl)-amide]	301 to 1000 nM
O=C(Cc1csc2ccccc12)N[C@H](C(=O)N[C@H]1CCc2cccc3c2N(C1=O)[C@H](C(=O)NCc1c[nH]nn1)C3)C1CCCC1 [Compound C075, (2S,5S)-5-[(S)-2-(2-Benzo[b]thiophen-3-yl-acetylamino)-2-cyclopentyl-acetylamino]-4-oxo-1,2,4,5,6,7-hexahydro-azepino[3,2,1-hi]indole-2-carboxylic acid (1H-[1,2,3]triazol-4-ylmethyl)-amide]	1 to 300 nM
CC[C@H](C)[C@H](NC(=O)COCCF)C(=O)N[C@H]1CCc2cccc3c2N(C1=O)[C@H](C(=O)NCc1cc(Cl)cc(Cl)c1)C3 [Compound C133, (2S,5S)-5-{(2S,3S)-2-[2-(2-Fluoro-ethoxy)-acetylamino]-3-methyl-pentanoylamino}-4-oxo-1,2,4,5,6,7-hexahydro-azepino[3,2,1-hi]indole-2-carboxylic acid 3,5-dichloro-benzylamide]	> 5000 nM
